Literature values in patent US6497890B2, “Anti-wrinkle preparation and method of reducing wrinkles in facial skin and neck” (priority 1996, dated 2002).

Test system: rheumatoid arthritis patients
Conditions: RA patients; mostly

Row | Compound | onset of action [month]
1 | CN(Cc1cnc2nc(N)nc(N)c2n1)c1ccc(C(=O)N[C@@H](CCC(=O)O)C(=O)O)cc1 [Methotrexate] | ≤ 1

Same assay, conditions: remittive agents in RA

Row | Compound | EFFICACY (estimated rate) | TOXICITY (estimated rate)
2 | O=C(O)c1cc(/N=N/c2ccc(S(=O)(=O)Nc3ccccn3)cc2)ccc1O [Sulfasalazine] | Intermediate | Intermediate
3 | Cn1cnc([N+](=O)[O-])c1Sc1ncnc2nc[nH]c12 [Azathioprine] | Intermediate | High
4 | CC(C)(S)[C@@H](N)C(=O)O [Penicillamine] | Intermediate | High
5 | CC(=O)OC[C@H]1O[C@@H]([S-])[C@H](OC(C)=O)[C@@H](OC(C)=O)[C@@H]1OC(C)=O.CCP(CC)CC.[Au+] [Auranofin] | Intermediate | Intermediate
6 | O=P1(N(CCCl)CCCl)NCCCO1 (centres unmarked) [Cyclophosphamide] | High | High
7 | CCN(CCO)CCCC(C)Nc1ccnc2cc(Cl)ccc12 (centres unmarked) [Hydroxychloroquine] | Intermediate | Low
8 | CN(Cc1cnc2nc(N)nc(N)c2n1)c1ccc(C(=O)N[C@@H](CCC(=O)O)C(=O)O)cc1 [Methotrexate] | High | Intermediate

Test system: not given
Conditions: commonly prescribed NSAIDS

Row | Half Life [h] | Compound
9 | 2 | CC(C(=O)O)c1cccc(Oc2ccccc2)c1 (centres unmarked) [Fenoprofen]
10 | 16 | CC1=C(CC(=O)O)c2cc(F)ccc2/C1=C\c1ccc([S+](C)[O-])cc1 (centres unmarked) [Sulindac]
11 | 40 | O=C(O)CCc1nc(-c2ccccc2)c(-c2ccccc2)o1 [Oxaprozin]
12 | 3 to 11 | COc1ccc2c(c1)c(CC(=O)O)c(C)n2C(=O)c1ccc(Cl)cc1 [Indomethacin]
13 | 1 to 2 | Cc1ccc(C(=O)c2ccc(CC(=O)O)n2C)cc1 [Tolmetin]
14 | 30 to 86 | CN1C(C(=O)Nc2ccccn2)=C(O)c2ccccc2S1(=O)=O [Piroxicam]
15 | 1.5 | O=C(O)Cc1ccccc1Nc1c(Cl)cccc1Cl [Diclofenac]
16 | 2 to 3 | Cc1ccc(Cl)c(Nc2ccccc2C(=O)O)c1Cl [Meclofenamate]
